# Assay results: PubChem BioAssay AID248 (DTP/NCI, 2004)
# “And” between values parts separate entries of the source, which are not always exact repeats. Equal values may be shown once. Toxic doses and inconclusive results are not listed.
# System: L1210 leukemia ip in BDF1 mice, survival T/C
# Assay: NCI In Vivo Anticancer Drug Screen. Data for tumor model L1210 Leukemia (intraperitoneal) in B6D2F1 (BDF1) mice
# Conditions: endpoint: mean survival time, higher = longer survival
# Method in brief: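 Each compound was tested against a transplantable tumor grown in mice. The endpoint was survival, with treated animals benchmarked against vehicle controls as a simple ratio.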
# [1] = dose: 3.0 mg/kg/injection, schedule: Q01DX009 (ip), vehicle: saline with Tween-80
# [2] = dose: 6.0 mg/kg/injection, schedule: Q01DX009 (ip), vehicle: saline with Tween-80
# [3] = dose: 12.0 mg/kg/injection, schedule: Q01DX009 (ip), vehicle: saline with Tween-80
# [4] = dose: 12.5 mg/kg/injection, schedule: Q04DX003 (ip), vehicle: saline with Tween-80
# [5] = dose: 100.0 mg/kg/injection, schedule: Q01DX001 (ip), vehicle: Klucel (hydroxypropylcellulose) (HPC)
# [6] = dose: 100.0 mg/kg/injection, schedule: Q01DX009 (ip), vehicle: Klucel (hydroxypropylcellulose) (HPC)
# [7] = dose: 200.0 mg/kg/injection, schedule: Q01DX001 (ip), vehicle: Klucel (hydroxypropylcellulose) (HPC)
# [8] = dose: 200.0 mg/kg/injection, schedule: Q01DX009 (ip), vehicle: Klucel (hydroxypropylcellulose) (HPC)
# [9] = dose: 400.0 mg/kg/injection, schedule: Q01DX001 (ip), vehicle: Klucel (hydroxypropylcellulose) (HPC)
# [10] = dose: 100.0 mg/kg/injection, schedule: Q01DX001 (ip), vehicle: saline
# [11] = dose: 200.0 mg/kg/injection, schedule: Q01DX001 (ip), vehicle: saline
# [12] = dose: 50.0 mg/kg/injection, schedule: Q04DX002 (ip), vehicle: Klucel (hydroxypropylcellulose) (HPC)
# [13] = dose: 100.0 mg/kg/injection, schedule: Q04DX002 (ip), vehicle: Klucel (hydroxypropylcellulose) (HPC)
# [14] = dose: 200.0 mg/kg/injection, schedule: Q04DX002 (ip), vehicle: Klucel (hydroxypropylcellulose) (HPC)
structure (smiles),measurement,setting,value
CN(C)[C@@H]1C(=O)C(C(=O)NCNC(Cc2ccc(N(CCCl)CCCl)cc2)C(=O)O)=C(O)[C@@]2(O)C(=O)C3=C(O)c4c(O)cccc4[C@@](C)(O)[C@H]3C[C@@H]12 (stereo partly drawn),T/C,"dose: 1.3 mg/kg/injection, schedule: Q01DX009 (ip), vehicle: other",114 % of control
same,T/C,"dose: 4.69 mg/kg/injection, schedule: Q01DX009 (ip), vehicle: saline",121 % of control
same,T/C,"dose: 5.0 mg/kg/injection, schedule: Q01DX001 (ip), vehicle: saline",96 % of control
same,T/C,"dose: 6.6 mg/kg/injection, schedule: Q01DX009 (ip), vehicle: other",152 % of control
same,T/C,"dose: 9.0 mg/kg/injection, schedule: Q01DX001 (ip), vehicle: saline",109 % of control
same,T/C,"dose: 10.0 mg/kg/injection, schedule: Q01DX009 (ip), vehicle: other",173 % of control
same,T/C,"dose: 18.0 mg/kg/injection, schedule: Q01DX009 (ip), vehicle: other",189 % of control
same,T/C,"dose: 18.95 mg/kg/injection, schedule: Q01DX009 (ip), vehicle: saline",162 % of control
same,T/C,"dose: 19.0 mg/kg/injection, schedule: Q01DX001 (ip), vehicle: saline",102 % of control
same,T/C,"dose: 30.0 mg/kg/injection, schedule: Q01DX001 (ip), vehicle: other",156 % of control
same,T/C,"dose: 37.5 mg/kg/injection, schedule: Q01DX009 (ip), vehicle: saline",166 % of control
same,T/C,"dose: 38.0 mg/kg/injection, schedule: Q01DX001 (ip), vehicle: saline",123 % of control
same,T/C,"dose: 44.0 mg/kg/injection, schedule: Q01DX001 (ip), vehicle: other",152 % of control and 164 % of control
same,T/C,"dose: 67.0 mg/kg/injection, schedule: Q01DX001 (ip), vehicle: other",173 % of control
same,T/C,"dose: 75.0 mg/kg/injection, schedule: Q01DX001 (ip), vehicle: saline",122 % of control
same,T/C,"dose: 75.0 mg/kg/injection, schedule: Q01DX009 (ip), vehicle: saline",102 % of control
same,T/C,"dose: 100.0 mg/kg/injection, schedule: Q01DX001 (ip), vehicle: other",191 % of control
C[N+]1(Cc2c[nH]c3ccsc23)CCCCC1,T/C,[1],99 % of control
same,T/C,[2],97 % of control
same,T/C,[3],90 % of control
same,T/C,[4],101 % of control
CC(C)=NNC(=O)CC(=O)NN=C(C)C,T/C,"dose: 100.0 mg/kg/injection, schedule: Q04DX003 (ip), vehicle: saline sonified",89 % of control
same,T/C,"dose: 200.0 mg/kg/injection, schedule: Q04DX003 (ip), vehicle: saline sonified",87 % of control
same,T/C,"dose: 400.0 mg/kg/injection, schedule: Q04DX003 (ip), vehicle: saline sonified",94 % of control
Cc1cc(C(=O)c2ccccc2)ccc1O,T/C,"dose: 50.0 mg/kg/injection, schedule: Q01DX001 (ip), vehicle: carboxymethylcellulose (CMC)",100 % of control
same,T/C,"dose: 100.0 mg/kg/injection, schedule: Q01DX001 (ip), vehicle: carboxymethylcellulose (CMC)",96 % of control
same,T/C,"dose: 200.0 mg/kg/injection, schedule: Q01DX001 (ip), vehicle: carboxymethylcellulose (CMC)",91 % of control
same,T/C,"dose: 400.0 mg/kg/injection, schedule: Q01DX001 (ip), vehicle: carboxymethylcellulose (CMC)",96 % of control
Cn1c2ccccc2c2nnc(NCCCO)nc21,T/C,"dose: 100.0 mg/kg/injection, schedule: Q04DX002 (ip), vehicle: saline with Tween-80",86 % of control
same,T/C,"dose: 200.0 mg/kg/injection, schedule: Q04DX002 (ip), vehicle: saline with Tween-80",104 % of control
same,T/C,"dose: 400.0 mg/kg/injection, schedule: Q04DX002 (ip), vehicle: saline with Tween-80",97 % of control
CC(=O)NC1CCC(CC(=O)O)CC1 (stereo not drawn),T/C,[5],94 % of control and 96 % of control
same,T/C,[6],98 % of control
same,T/C,"dose: 100.0 mg/kg/injection, schedule: Q04DX003 (ip), vehicle: Klucel (hydroxypropylcellulose) (HPC)",92 % of control
same,T/C,[7],94 % of control and 102 % of control
same,T/C,[8],87 % of control
same,T/C,"dose: 200.0 mg/kg/injection, schedule: Q04DX003 (ip), vehicle: Klucel (hydroxypropylcellulose) (HPC)",99 % of control
same,T/C,[9],91 % of control and 94 % of control
same,T/C,"dose: 400.0 mg/kg/injection, schedule: Q04DX003 (ip), vehicle: Klucel (hydroxypropylcellulose) (HPC)",95 % of control
CC(C)=NNC(=O)c1ccc[n+](C)c1,T/C,[10],102 % of control
same,T/C,[11],98 % of control
same,T/C,"dose: 400.0 mg/kg/injection, schedule: Q01DX001 (ip), vehicle: saline",100 % of control
CC(=O)OC(C#N)c1ccco1 (stereo not drawn),T/C,[1],91 % of control
same,T/C,"dose: 3.0 mg/kg/injection, schedule: Q04DX003 (ip), vehicle: saline with Tween-80",105 % of control
same,T/C,[2],100 % of control
same,T/C,"dose: 6.0 mg/kg/injection, schedule: Q04DX003 (ip), vehicle: saline with Tween-80",101 % of control
same,T/C,[3],91 % of control
same,T/C,"dose: 12.0 mg/kg/injection, schedule: Q04DX003 (ip), vehicle: saline with Tween-80",101 % of control
same,T/C,[4],89 % of control
CC(=O)c1cn(C2CC(O)C(CO)O2)c(=O)[nH]c1=O (stereo not drawn),T/C,"dose: 50.0 mg/kg/injection, schedule: Q01DX001 (ip), vehicle: saline",117 % of control
same,T/C,"dose: 50.0 mg/kg/injection, schedule: Q04DX002 (ip), vehicle: saline",96 % of control
same,T/C,[10],111 % of control
same,T/C,"dose: 100.0 mg/kg/injection, schedule: Q04DX002 (ip), vehicle: saline",105 % of control
same,T/C,[11],105 % of control
same,T/C,"dose: 200.0 mg/kg/injection, schedule: Q04DX002 (ip), vehicle: saline",121 % of control
Nc1c(Cl)c(Cl)c(Cl)c(Cl)c1C(=O)O,T/C,"dose: 40.0 mg/kg/injection, schedule: Q01DX009 (ip), vehicle: Klucel (hydroxypropylcellulose) (HPC)",105 % of control
same,T/C,"dose: 75.0 mg/kg/injection, schedule: Q01DX009 (ip), vehicle: Klucel (hydroxypropylcellulose) (HPC)",103 % of control
same,T/C,"dose: 75.0 mg/kg/injection, schedule: Q04DX003 (ip), vehicle: saline",104 % of control
same,T/C,[6],93 % of control
same,T/C,"dose: 150.0 mg/kg/injection, schedule: Q01DX009 (ip), vehicle: Klucel (hydroxypropylcellulose) (HPC)",97 % of control and 122 % of control
same,T/C,"dose: 150.0 mg/kg/injection, schedule: Q04DX003 (ip), vehicle: saline",98 % of control
same,T/C,[8],93 % of control
OC(c1ccccc1)(c1ccccc1)c1ccccc1,T/C,"dose: 9.0 mg/kg/injection, schedule: Q01DX015 (ip), vehicle: saline",95 % of control
same,T/C,"dose: 18.0 mg/kg/injection, schedule: Q01DX015 (ip), vehicle: saline",101 % of control
same,T/C,"dose: 36.0 mg/kg/injection, schedule: Q01DX015 (ip), vehicle: saline",98 % of control
same,T/C,[12],97 % of control
same,T/C,"dose: 72.0 mg/kg/injection, schedule: Q01DX015 (ip), vehicle: saline",98 % of control
same,T/C,[13],95 % of control and 103 % of control
same,T/C,"dose: 100.0 mg/kg/injection, schedule: Q04DX002 (ip), vehicle: other",95 % of control
same,T/C,"dose: 143.0 mg/kg/injection, schedule: Q01DX015 (ip), vehicle: saline",91 % of control
same,T/C,[14],94 % of control
same,T/C,"dose: 200.0 mg/kg/injection, schedule: Q04DX002 (ip), vehicle: other",95 % of control
same,T/C,"dose: 286.0 mg/kg/injection, schedule: Q01DX015 (ip), vehicle: saline",89 % of control
same,T/C,"dose: 400.0 mg/kg/injection, schedule: Q04DX002 (ip), vehicle: Klucel (hydroxypropylcellulose) (HPC)",103 % of control and 88 % of control
same,T/C,"dose: 400.0 mg/kg/injection, schedule: Q04DX002 (ip), vehicle: other",92 % of control
same,T/C,"dose: 572.0 mg/kg/injection, schedule: Q01DX015 (ip), vehicle: saline",98 % of control
CCN1/C(=C/c2ccc3ccccc3[n+]2CC)C=Cc2ccccc21,T/C,"dose: 2.0 mg/kg/injection, schedule: Q01DX001 (ip), vehicle: other",103 % of control
same,T/C,"dose: 8.0 mg/kg/injection, schedule: Q01DX001 (ip), vehicle: other",110 % of control
same,T/C,"dose: 9.5 mg/kg/injection, schedule: Q01DX001 (ip), vehicle: other",101 % of control
CC(=O)N1C(=O)c2ccccc2C1=O,T/C,[5],95 % of control
same,T/C,[6],93 % of control
same,T/C,[7],92 % of control
same,T/C,[8],93 % of control
same,T/C,[9],92 % of control
same,T/C,"dose: 400.0 mg/kg/injection, schedule: Q01DX009 (ip), vehicle: Klucel (hydroxypropylcellulose) (HPC)",90 % of control
CC(=O)Oc1ccc(CCN(Cc2ccc3c(c2)OCO3)C(C)=O)cc1,T/C,[12],97 % of control
same,T/C,[13],91 % of control
same,T/C,[14],97 % of control
